What is called EC50 is the concentration that produces a half-maximal response. What is called IC50 is the concentration that gives 50% inhibition.

Results on 18 compounds are retold here after patent US9676782B2, “Substituted pyrazolo[1,5-a]pyrazines as negative allosteric modulators of metabotropic glutamate receptor 3” (Vanderbilt University, priority 2014, dated 2017).

Assay [1] addresses rat mGlu5 (Rattus norvegicus (Rat), UniProt P31424). Briefly: mGlu5 Ca2+ flux assay. In kind it is cell-based. Conditions: for Emax at 30 µM: PAM, amplitude of response at 30 μM test compound as % of maximal response to glutamate, read-out: rat mGlu5 Glu max (%); for Fold selectivity (mGlu3 vs. mGlu5): ratio of rat mGlu5 EC50 or IC50 to rat mGlu3 IC50; for mGlu5 Glu max: response at 30 μM compound as percentage of maximal glutamate response. The protocol: (§1) The cells were grown overnight at 37° C. in the presence of 5% CO2. […] Dye was removed, 20 μL of assay buffer was added, and the plate was incubated for 5 minutes at room temperature. Ca^2+ flux was measured using the Functional Drug Screening System (FDSS7000, Hamamatsu, Japan). […] All test compounds were dissolved and diluted to a concentration of 10 mM in 100% DMSO. […] Calcium fluorescence measures were recorded as fold over basal fluorescence; raw data was then normalized to the maximal response to glutamate. […] The raw data file containing all time points was used as the data source in the analysis template. This was saved by the FDSS as a tab-delimited text file. Data were normalized using a static ratio function (F/F0) for each measurement of the total 360 values per well divided by each well's initial value. […] This is sufficient time to capture the peak amplitude of the cellular calcium response. […] EC50 values for test compounds were generated by fitting the normalized values versus the log of the test compound concentration (in mol/L) using a 4 parameter logistic equation where none of the parameters were fixed. Each of the three values collected at each concentration of test compound were weighted evenly.
In general terms: A change in cytosolic calcium serves as a functional read-out for many receptors and channels.

Assay [2] concerns the target rat mGlu3 (Rattus norvegicus (Rat), UniProt P31422). Briefly: mGlu3 Ca2+ flux assay. In kind it is cell-based. Conditions: for remaining activity at 30 µM: amplitude of response at 30 μM test compound as % of maximal response to glutamate, read-out: rat mGlu3 Glu max (%); for mGlu3 Glu max: response at 30 μM compound as percentage of maximal glutamate response. How it is done:
as §1, with “for 10” for “for 5”

Setting [3] is: read-out: rat mGlu5 EC50 or IC50.
[4] abbreviates: NAM potency, decrease of glutamate EC80 response, >30,000 = no measurable activity, >10,000 = no plateau, read-out: rat mGlu3 IC50.

Read-outs that look alike come from different tables or passages of the source.

Chain of rat mGlu3 (P31422 23-879): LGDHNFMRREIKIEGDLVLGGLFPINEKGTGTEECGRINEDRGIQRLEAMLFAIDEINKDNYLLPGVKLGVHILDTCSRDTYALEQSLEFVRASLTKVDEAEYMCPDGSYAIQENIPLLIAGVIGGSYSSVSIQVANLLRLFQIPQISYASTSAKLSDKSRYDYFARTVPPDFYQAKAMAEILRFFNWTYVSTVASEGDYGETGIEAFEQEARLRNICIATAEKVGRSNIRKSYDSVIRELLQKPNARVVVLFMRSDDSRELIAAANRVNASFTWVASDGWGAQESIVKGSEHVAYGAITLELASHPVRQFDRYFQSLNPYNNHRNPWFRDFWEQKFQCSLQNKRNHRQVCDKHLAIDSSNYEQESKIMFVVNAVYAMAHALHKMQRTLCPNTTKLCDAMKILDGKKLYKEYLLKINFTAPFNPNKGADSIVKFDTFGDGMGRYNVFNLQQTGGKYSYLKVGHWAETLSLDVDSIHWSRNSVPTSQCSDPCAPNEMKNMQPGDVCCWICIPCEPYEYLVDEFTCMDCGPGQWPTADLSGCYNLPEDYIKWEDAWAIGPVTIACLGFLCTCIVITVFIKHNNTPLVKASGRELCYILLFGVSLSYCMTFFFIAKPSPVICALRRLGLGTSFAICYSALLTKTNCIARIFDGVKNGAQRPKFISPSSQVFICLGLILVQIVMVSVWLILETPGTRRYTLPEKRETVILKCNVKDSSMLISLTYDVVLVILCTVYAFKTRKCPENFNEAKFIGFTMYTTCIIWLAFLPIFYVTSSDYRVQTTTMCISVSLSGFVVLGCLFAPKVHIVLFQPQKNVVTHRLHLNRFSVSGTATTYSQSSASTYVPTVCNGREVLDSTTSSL
Chain of rat mGlu5 (P31424 21-1203): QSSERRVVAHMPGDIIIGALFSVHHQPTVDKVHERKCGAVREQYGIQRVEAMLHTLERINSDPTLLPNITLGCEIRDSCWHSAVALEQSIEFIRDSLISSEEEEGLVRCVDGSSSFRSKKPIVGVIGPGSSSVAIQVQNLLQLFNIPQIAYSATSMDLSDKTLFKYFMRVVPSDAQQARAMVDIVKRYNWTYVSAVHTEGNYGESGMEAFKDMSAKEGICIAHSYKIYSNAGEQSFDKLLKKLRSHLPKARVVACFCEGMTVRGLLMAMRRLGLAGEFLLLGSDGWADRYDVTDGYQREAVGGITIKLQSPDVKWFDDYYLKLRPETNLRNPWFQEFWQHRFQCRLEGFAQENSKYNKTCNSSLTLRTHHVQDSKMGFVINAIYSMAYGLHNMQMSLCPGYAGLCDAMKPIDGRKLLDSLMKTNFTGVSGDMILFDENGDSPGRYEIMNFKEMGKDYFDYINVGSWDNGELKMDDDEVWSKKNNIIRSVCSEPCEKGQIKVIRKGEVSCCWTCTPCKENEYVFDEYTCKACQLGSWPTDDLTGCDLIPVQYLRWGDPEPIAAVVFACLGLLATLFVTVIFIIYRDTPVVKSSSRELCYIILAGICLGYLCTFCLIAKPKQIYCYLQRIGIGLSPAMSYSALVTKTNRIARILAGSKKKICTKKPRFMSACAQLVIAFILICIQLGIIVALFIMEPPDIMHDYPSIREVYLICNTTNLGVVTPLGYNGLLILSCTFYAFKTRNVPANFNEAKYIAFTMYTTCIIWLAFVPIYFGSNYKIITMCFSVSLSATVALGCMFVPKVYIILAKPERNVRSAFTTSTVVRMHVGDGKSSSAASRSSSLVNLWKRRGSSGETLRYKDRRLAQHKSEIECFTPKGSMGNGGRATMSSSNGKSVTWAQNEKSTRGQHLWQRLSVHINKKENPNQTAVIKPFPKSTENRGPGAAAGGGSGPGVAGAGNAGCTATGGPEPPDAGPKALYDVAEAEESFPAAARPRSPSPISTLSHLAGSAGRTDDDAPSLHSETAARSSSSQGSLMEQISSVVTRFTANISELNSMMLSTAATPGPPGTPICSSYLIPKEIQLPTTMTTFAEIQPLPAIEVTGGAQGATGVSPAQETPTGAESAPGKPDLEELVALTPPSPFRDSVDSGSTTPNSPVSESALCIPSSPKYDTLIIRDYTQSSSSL

Take `C[C@H]1CN(c2ccc(F)cc2)C(=O)c2cc(CNc3cccc(OC(F)F)c3)nn21` [Compound 55, (S)-2-(((3-(difluoromethoxy)phenyl)amino)methyl)-5-(4-fluorophenyl)-7-methyl-6,7-dihydropyrazolo[1,5-a]pyrazin-4(5H)-one]: in assay [1], the Emax at 30 µM amounted to 28.8% and the “Fold selectivity (mGlu3 vs. mGlu5)” value is reported as above 5.9. The EC50 in assay [1] (setting [3]) was above 10 µM. In addition, the half-inhibitory concentration (IC50) in assay [2] (setting [4]) came out at 1.67 µM. Further, in assay [2], the remaining activity at 30 µM turned out to be 1.85%.
On to `O=C1c2cc(CNc3ccc(F)cc3)nn2CCN1c1ccc(F)cc1` [Compound 13, 5-(4-fluorophenyl)-2-(((4-fluorophenyl)amino)methyl)-6,7-dihydropyrazolo[1,5-a]pyrazin-4(5H)-one], for which, in assay [1], the Emax at 30 µM was 56.6% and the “Fold selectivity (mGlu3 vs. mGlu5)” value is reported as 2.83. Moreover, in assay [1] (setting [3]), the EC50 is 3.26 µM. Further, the 50% inhibitory concentration (IC50) in assay [2] (setting [4]) worked out at 1.15 µM. In addition, the remaining activity at 30 µM in assay [2] amounted to 2.22%.
For `COCc1ccc(N2CCn3nc(CN(C)c4ccc(OC)cc4)cc3C2=O)cc1` [Compound 120, 5-(4-(methoxymethyl)phenyl)-2-(((4-methoxyphenyl)(methyl)amino)methyl)-6,7-dihydropyrazolo[1,5-a]pyrazin-4(5H)-one], the “Fold selectivity (mGlu3 vs. mGlu5)” value in assay [1] is listed as above 10. In addition, in assay [1] (setting [3]), the EC50 was above 30 µM. In assay [2], the remaining activity at 30 µM turned out to be 1.48%. The IC50 in assay [2] (read-out: rat mGlu3 IC50) came to 2.88 µM.
`C[C@H]1CN(c2ccc(F)cc2)C(=O)c2cc(CNc3ccccc3)nn21` [Compound 41, (S)-5-(4-fluorophenyl)-7-methyl-2-((phenylamino)methyl)-6,7-dihydropyrazolo[1,5-a]pyrazin-4(5H)-one]: in assay [1], the Emax at 30 µM was found to be 81.7% and the “Fold selectivity (mGlu3 vs. mGlu5)” value was 0.17. The concentration giving a half-maximal response (EC50) in assay [1] (setting [3]) is 1.36 µM. In addition, in assay [2] (setting [4]), the IC50 amounted to 8.11 µM. Also, the remaining activity at 30 µM in assay [2] is -2.27%.
As for `COc1ccc(N(C)Cc2cc3n(n2)CCN(c2cccc(F)c2F)C3=O)cc1` [Compound 107, 5-(2,3-difluorophenyl)-2-(((4-methoxyphenyl)(methyl)amino)methyl)-6,7-dihydropyrazolo[1,5-a]pyrazin-4(5H)-one], the “Fold selectivity (mGlu3 vs. mGlu5)” value in assay [1] was above 29. Besides, in assay [1] (setting [3]), the EC50 was above 30 µM. In assay [2] (setting [4]), the IC50 was determined as 1.03 µM. Further, the remaining activity at 30 µM in assay [2] came out at 1.67%.
`CS(=O)(=O)c1ccc(NCc2cc3n(n2)CCN(c2ccc(F)cc2)C3=O)cc1` [Compound 25, 5-(4-fluorophenyl)-2-(((4-(methylsulfonyl)phenyl)amino)methyl)-6,7-dihydropyrazolo[1,5-a]pyrazin-4(5H)-one]: the “Fold selectivity (mGlu3 vs. mGlu5)” value in assay [1] is on record as above 3. Moreover, the EC50 in assay [1] (setting [3]) is above 30 µM. For the same compound, the remaining activity at 30 µM in assay [2] worked out at 66.9%. Besides, in assay [2] (read-out: rat mGlu3 IC50), the IC50 was above 10 µM.
As to `COc1ccc(N(C)Cc2cc3n(n2)CCN(c2ccc(F)c(F)c2)C3=O)cc1` [Compound 97, 5-(3,4-difluorophenyl)-2-(((4-methoxyphenyl)(methyl)amino)methyl)-6,7-dihydropyrazolo[1,5-a]pyrazin-4(5H)-one], the “Fold selectivity (mGlu3 vs. mGlu5)” value in assay [1] is above 27. The EC50 in assay [1] (setting [3]) is above 30 µM. Moreover, the IC50 in assay [2] (setting [4]) worked out at 1.08 ± 0.24 µM. Besides, the remaining activity at 30 µM in assay [2] amounted to 1.74 ± 0.56%.
With `CC(C)c1ccc(NCc2cc3n(n2)CCN(c2ccc(F)cc2)C3=O)cc1` [Compound 23, 5-(4-fluorophenyl)-2-(((4-isopropylphenyl)amino)methyl)-6,7-dihydropyrazolo[1,5-a]pyrazin-4(5H)-one], the “Fold selectivity (mGlu3 vs. mGlu5)” value in assay [1] is given as above 3. In assay [1] (setting [3]), the EC50 is above 30 µM. For the same compound, the remaining activity at 30 µM in assay [2] amounted to 28.9%. Moreover, the IC50 in assay [2] (read-out: rat mGlu3 IC50) was above 10 µM.
For the compound `O=C1c2cc(CNc3cccc(Cl)n3)nn2CCN1c1ccc(F)cc1` [Compound 163, 2-(((6-chloropyridin-2-yl)amino)methyl)-5-(4-fluorophenyl)-6,7-dihydropyrazolo[1,5-a]pyrazin-4(5H)-one], in assay [1], the “Fold selectivity (mGlu3 vs. mGlu5)” value is on record as above 25. Moreover, the EC50 in assay [1] (setting [3]) is above 30 µM. In addition, the IC50 in assay [2] (setting [4]) was determined as 1.18 µM. The remaining activity at 30 µM in assay [2] amounted to 1.15%.
On to `COc1ccc(NCc2cc3n(n2)CCN(c2ccc(Cl)cc2)C3=O)cc1` [Compound 81, 5-(4-chlorophenyl)-2-(((4-methoxyphenyl)amino)methyl)-6,7-dihydropyrazolo[1,5-a]pyrazin-4(5H)-one], for which the “Fold selectivity (mGlu3 vs. mGlu5)” value in assay [1] is above 22. Further, in assay [1] (setting [3]), the EC50 was above 30 µM. In addition, the IC50 in assay [2] (setting [4]) was 1.36 µM. Besides, the remaining activity at 30 µM in assay [2] worked out at 15.4%.
As for `C[C@@H]1CN(c2ccc(F)cc2)C(=O)c2cc(CNc3ccccc3F)nn21` [Compound 42, (R)-5-(4-fluorophenyl)-2-(((2-fluorophenyl)amino)methyl)-7-methyl-6,7-dihydropyrazolo[1,5-a]pyrazin-4(5H)-one], in assay [1], the Emax at 30 µM turned out to be 71.4% and the “Fold selectivity (mGlu3 vs. mGlu5)” value is on record as above 11. For the same compound, in assay [1] (setting [3]), the EC50 is above 10 µM. The IC50 in assay [2] (setting [4]) turned out to be 0.871 µM. In addition, in assay [2], the remaining activity at 30 µM came out at 0.89%.
For `COc1ccc(N(C)Cc2cc3n(n2)CCN(c2ccc(Cl)cc2)C3=O)cc1` [Compound 96, 5-(4-chlorophenyl)-2-(((4-methoxyphenyl)(methyl)amino)methyl)-6,7-dihydropyrazolo[1,5-a]pyrazin-4(5H)-one], the “Fold selectivity (mGlu3 vs. mGlu5)” value in assay [1] is given as above 51. Moreover, in assay [1] (setting [3]), the EC50 is above 30 µM. Besides, the IC50 in assay [2] (setting [4]) was found to be 0.585 µM. Also, in assay [2], the remaining activity at 30 µM turned out to be 1.61%.
For the compound `COc1ccccc1N(C)Cc1cc2n(n1)CCN(c1ccc(F)cc1)C2=O` [Compound 85, 5-(4-fluorophenyl)-2-(((2-methoxyphenyl)(methyl)amino)methyl)-6,7-dihydropyrazolo[1,5-a]pyrazin-4(5H)-one], in assay [1], the “Fold selectivity (mGlu3 vs. mGlu5)” value is above 3.1. Besides, the EC50 in assay [1] (setting [3]) was above 30 µM. Besides, the IC50 in assay [2] (setting [4]) came to 9.48 µM. Besides, the remaining activity at 30 µM in assay [2] was -7.96%.
For `CN(Cc1cc2n(n1)CCN(c1ccc(F)cc1)C2=O)c1cccc(F)c1` [drawing 31 X = NMe], the EC50 in assay [1] (Table 2 compounds with X = NMe, read-out: mGlu5 EC50) stood at 7.76 µM. In assay [1] (Table 2 compounds with X = NMe), the “mGlu5 Glu max” value is given as 110%. In addition, the IC50 in assay [2] (Table 2 compounds with X = NMe, read-out: mGlu3 IC50) came out at 0.594 µM. In addition, in assay [2] (Table 2 compounds with X = NMe), the “mGlu3 Glu max” value stood at 2%.
As to `C[C@@H]1CN(c2ccc(F)cc2)C(=O)c2cc(CNc3ccc(OC(F)F)cc3)nn21` [Compound 64, (R)-2-(((4-(difluoromethoxy)phenyl)amino)methyl)-5-(4-fluorophenyl)-7-methyl-6,7-dihydropyrazolo[1,5-a]pyrazin-4(5H)-one], in assay [1], the “Fold selectivity (mGlu3 vs. mGlu5)” value was above 22. In assay [1] (setting [3]), the EC50 was above 30 µM. For the same compound, the IC50 in assay [2] (setting [4]) amounted to 1.35 µM. The remaining activity at 30 µM in assay [2] came to 2.46%.
On to `O=C1c2cc(COc3ccc(F)cc3)nn2CCN1c1ccc(F)cc1` [drawing 32 X = O, reference compound], for which the EC50 in assay [1] (Table 2 compounds with X = O, read-out: mGlu5 EC50) turned out to be 0.106 µM. The “mGlu5 Glu max” value in assay [1] (Table 2 compounds with X = O) is 71%. The concentration for half-maximal inhibition (IC50) in assay [2] (Table 2 compounds with X = O, read-out: mGlu3 IC50) was found to be 0.108 µM. In addition, the “mGlu3 Glu max” value in assay [2] (Table 2 compounds with X = O) turned out to be 1%.
Turning to `COc1ccc(N(C)Cc2cc3n(n2)CCN(c2cc(F)cc(Cl)c2)C3=O)cc1` [Compound 131, 5-(3-chloro-5-fluorophenyl)-2-(((4-methoxyphenyl)(methyl)amino)methyl)-6,7-dihydropyrazolo[1,5-a]pyrazin-4(5H)-one], the “Fold selectivity (mGlu3 vs. mGlu5)” value in assay [1] was above 21. Besides, the half-maximal effective concentration (EC50) in assay [1] (setting [3]) was above 30 µM. The remaining activity at 30 µM in assay [2] amounted to 1.95%. Besides, in assay [2] (read-out: rat mGlu3 IC50), the IC50 was determined as 1.37 µM.
Take `CCCN(Cc1cc2n(n1)CCN(c1ccc(F)c(F)c1)C2=O)c1ccc(OC)cc1` [Compound 167, 5-(3,4-Difluorophenyl)-2-(((4-methoxyphenyl)(propyl)amino)methyl)-6,7-dihydropyrazolo[1,5-a]pyrazin-4(5H)-one]: in assay [1], the “Fold selectivity (mGlu3 vs. mGlu5)” value came to 8.06. Also, the EC50 in assay [1] (setting [3]) is above 30 µM. In addition, the remaining activity at 30 µM in assay [2] was determined as 1.32%. Further, in assay [2] (read-out: rat mGlu3 IC50), the IC50 came out at 3.72 µM.
